Laboratory results taken from patent US6927215B2, “Heterocyclic fluoroalkenyl thioethers and the use thereof as pesticides (I)” (Bayer Cropscience AG, priority 2000, dated 2005).

Columns and labels:
[1] = tested on: Boophilus microplus resistant (SP-resistant Parkhurst strain); assay: Test with Boophilus microplus resistant (SP-resistant Parkhurst strain), injection, oviposition of fertile eggs; type: in vivo
Method: (§1) Test with Boophilus Microplus Resistant (SP—Resistant Parkhurst Strain)
(§2) • Test animals: adult females which have sucked themselves full • Solvent: dimethyl sulphoxide
20 mg of active compound are dissolved in 1 ml of dimethyl sulphoxide, more dilute concentrations are prepared by dilution in the same solvent.
The test is carried out in 5 replications. 1 μl of the solutions is injected into the abdomen, and the animals are transferred into dishes and kept in a climatized room. After 7 days, the activity is checked by examination for oviposition of fertile eggs. Eggs whose fertility is not visible from the outside are stored in glass tubes in a controlled-environment cabinet until the larvae have hatched. An activity of 100% means that no tick has produced any fertile eggs.

[2] = tested on: adults of Ctenocephalides felis; assay: Test with cat fleas/oral uptake; type: in vivo; details: after 28 h
Method: Test with Cat Fleas/Oral Uptake
• Test animals: adults of Ctenocephalides felis • Solvent: dimethyl sulphoxide (DMSO)
To produce a suitable formulation, a suitable solution of active compound is prepared from 20 mg of active compound and 1 ml of DMSO. 15 μl of this formulation are added to 3 ml of citrated cattle blood and stirred.
10 unfed adult fleas (Ctenocephalides felis, strain “Georgi”) are placed into a chamber (Ø3.2 cm) whose top and bottom are closed with gauze. A metal cylinder whose underside is covered with parafilm is placed onto the chamber. The cylinder contains 3 ml of blood/active compound formulation which can be taken up by the fleas through the parafilm membrane. Whereas the blood is warmed to 37° C., the temperature in the area of the flea chambers is adjusted to 25° C. Controls are mixed with the same volume of DMSO, without addition of a compound. The determinations are carried out in triplicate.
After 28 h, the mortality in % (=dead fleas) is determined.
Compounds which effect an at least 25% kill of the fleas within 28 h are judged to be effective.

Lucilia cuprina larvae = assay: Blowfly larvae test (development-inhibitory action); type: in vivo
Method: Blowfly Larvae Test (Development-Inhibitory Action)
• Test animals: Lucilia cuprina larvae • Solvent: dimethyl sulphoxide
(§3) 20 mg of active compound are dissolved in 1 ml of dimethyl sulphoxide, more dilute concentrations are prepared by dilution with distilled water.
About 20 Lucilia cuprina larvae are introduced into a test tube which contains about 1 cm^3 of horse meat and 0.5 ml of the preparation of active compound to be tested. After 24 hours and 48 hours, the efficacy of the preparation of active compound is determined. The test tubes are transferred into a beaker whose bottom is covered with sand. After a further 2 days, the test tubes are removed and the pupae are counted.
The efficacy of the preparation of active compound is assessed by the number of flies that have hatched after 1.5 times the period of development of an untreated control. 100% means that no flies have hatched; 0% means that all flies have hatched normally.

[3] = tested on: Trichinella spiralis larvae; assay: Trichinella spiralis in-vitro; type: cell-based; parameters: key: 0 means no activity; 1 means weak activity; 2 means good activity; 3 means full activity; details: 5 days at 19° C.
Method: Trichinella spiralis In-vitro
• Test animals: Trichinella spiralis larvae • Solvent: dimethyl sulphoxide
Trichinella spiralis larvae are isolated from skeletal muscles and subcutaneous muscles of SPF/CFW1 mice and collected in aqueous 0.9% NaCl containing 20 μg of sisomycin/ml. Per determination, 20 larvae are incubated in 2 ml of a nutrient solution (20 g of Bacto Casitone/l, 10 g of yeast extract/l, 5 g of glucose/l, 0.8 g of KH2PO4/l, 0.8 g of K2HPO4; […] of sisomycin/ml and 1 μg of Canesten/ml; pH=7.2).
The incubation and the determination have been described in Martin et al., Pesticide Science (1996) 48, 343-349. 10 mg of the test compound are dissolved in 0.5 ml of the stated solvent, and such an amount of the resulting solution is added to the incubation medium that the desired concentration is reached. The controls contain only the solvent.
After an incubation time of 5 days at a temperature of 19° C., the experiment is terminated. The anthelmintic activity of a substance is categorized into 4 stages. 0 means no activity, 1 means weak activity, 2 means good activity and 3 means full activity (<50%, 50-75%, >75%, 100% of the larvae dead).

logP (pH2) = type: physicochemical
[4] = tested on: Meloidogyne incognita egg/larvae; assay: Meloidogyne test; type: in vivo; details: active compound concentration 20 ppm; lettuce
Method: • Solvent: 8 parts by weight of acetone • Emulsifier: 1 part by weight of alkylaryl polyglycol ether
To produce a suitable preparation of active compound, 1 part by weight of active compound is mixed with the stated amounts of solvent and emulsifier, and the concentrate is diluted with water to the desired concentration.
Containers are filled with sand, solution of active compound, Meloidogyne incognita egg/larvae suspension and lettuce seeds. The lettuce seeds germinate and the plants develop. On the roots, galls are formed.
After the desired period of time, the nematicidal action is determined in % using gall formation as a measure. 100% means that no galls were found; 0% means that the number of galls on the treated plants corresponds to that of the untreated control.

[5] = tested on: peach aphid (Myzus persicae); assay: Myzus test; type: in vivo; details: active compound concentration 0.1%; after 6 days
Method: (§4) • Solvent: 30 parts by weight of dimethylformamide • Emulsifier: 1 part by weight of alkylaryl polyglycol ether
(§5) To produce a suitable preparation of active compound, 1 part by weight of active compound is mixed with the stated amounts of solvent and emulsifier, and the concentrate is diluted with emulsifier-containing water to the desired concentration.
Cabbage leaves (Brassica oleracea) which are heavily infested by the peach aphid (Myzus persicae) are treated by being dipped into the preparation of active compound of the desired concentration.
After the desired period of time, the kill in % is determined. 100% means that all aphids have been killed; 0% means that none of the aphids have been killed.

[6] = tested on: larvae of the mustard beetle (Phaedon cochleariae); assay: Phaedon larvae test; type: in vivo; details: active compound concentration 0.1%; after 7 days
Method: as §4, §5
Cabbage leaves (Brassica oleracea) are treated by being dipped into the preparation of active compound of the desired concentration and are populated with larvae of the mustard beetle (Phaedon cochleariae) while the leaves are still moist.
After the desired period of time, the kill in % is determined. 100% means that all beetle larvae have been killed; 0% means that none of the beetle larvae have been killed.

[7] = tested on: caterpillars of the army worm (Spodoptera frugiperda); assay: Spodoptera frugiperda test; type: in vivo; details: active compound concentration 0.1%; after 7 days
Method: Spodoptera frugiperda Test
as §4, §5
Cabbage leaves (Brassica oleracea) are treated by being dipped into the preparation of active compound of the desired concentration and are populated with caterpillars of the army worm (Spodoptera frugiperda) while the leaves are still moist.
After the desired period of time, the kill in % is determined. 100% means that all caterpillars have been killed; 0% means that none of the caterpillars have been killed.

[8] = tested on: Boophilus microplus resistant (SP-resistant Parkhurst strain); assay: Test with Boophilus microplus resistant (SP-resistant Parkhurst strain), dipping; type: in vivo; details: active compound concentration 100 ppm; dipped for 1 minute
Method: as §1, §2, §3
10 adult Boophilus microplus res. are dipped for 1 minute into the preparation of active compound to be tested. The animals are transferred into plastic beakers and kept in a climatized room, and the kill rate is then determined.
100% means that all ticks have been killed; 0% means that none of the ticks have been killed.

[9] = tested on: adult Musca domestica, Reichswald strain (OP, SP, carbamate-resistant); assay: Test with flies (Musca domestica); type: in vivo; details: active compound concentration 100 ppm
Method: Test with Flies (Musca domestica)
• Test animals: adult Musca domestics, Reichswald strain (OP, SP, carbamate-resistant) • Solvent: dimethyl sulphoxide
as §3
2 ml of this active compound preparation are pipetted onto filter paper discs (Ø9.5 cm) in petri dishes of corresponding dimensions. After the filter discs have been dried, 25 test animals are transferred into the petri dishes, which are then covered.
After 1, 3, 5, 24 and 48 hours, the activity of the active compound preparation is determined. 100% means that all flies have been killed; 0% means that none of the flies have been killed.

[10] = tested on: greenhouse red spider mite (Tetranychus urticae); assay: Tetranychus test (OP-resistant/dip treatment); type: in vivo; details: active compound concentration 0.1%; after 7 days
Method: Tetranychus Test (OP-Resistant/Dip Treatment)
as §4, §5
Bean plants (Phaseolus vulgaris) which are heavily infested by all stages of the greenhouse red spider mite (Tetranychus urticae) are dipped into a preparation of active compound of the desired concentration.
After the desired period of time, the effect in % is determined. 100% means that all spider mites have been killed; 0% means that none of the spider mites have been killed.

[11] = 0.8 μg per animal, injection, after 7 days
[12] = 4 μg per animal, injection, after 7 days
[13] = 20 μg per animal, injection, after 7 days
[14] = active compound concentration 100 ppm
[15] = active compound concentration 20 ppm
[16] = active compound concentration 4 ppm, injection, after 7 days
[17] = active compound concentration 20 ppm, injection, after 7 days

| Structure (SMILES) | kill (no fertile eggs) [1, 11] | kill (no fertile eggs) [1, 12] | kill (no fertile eggs) [1, 13] | kill (no fertile eggs) [1, 14] | kill (mortality) [2, 15] | kill (mortality) [2, 14] | kill (no flies hatched) (Lucilia cuprina larvae; [14]) | anthelmintic activity class (larvae dead) [3, 14] | logP (pH2) (logP (pH2)) | kill (no fertile eggs) [1, 16] | kill (no fertile eggs) [1, 17] | also measured |
| --- | --- | --- | --- | --- | --- | --- | --- | --- | --- | --- | --- | --- |
| CC1SC(SCCC=C(F)F)=NS1(=O)=O (racemic) [Example 8] | 100% | 100% | 100% | 100% | 79% | 91% | 100% | no activity |  |  |  |  |
| CC1SC(SCCCCC(F)=C(F)F)=NS1(=O)=O (racemic) [Example 9] |  |  |  |  |  |  |  |  | 3.24 |  |  |  |
| CC1SC(SCCCCC=C(F)F)=NS1(=O)=O (racemic) [Example 10] | 100% | 100% | 100% | 100% | 83% | 95% | 100% | no activity | 3.31 |  |  |  |
| O=S1(=O)CSC(SCCC(F)=C(F)F)=N1 [Example 1, 5-(4,4,3-trifluorobutenylthio)-1,3,4-dithiazoline 3,3-dioxide] |  |  |  |  |  |  | 100% |  |  | 100% | 100% | nematicidal action (activity) using gall formation as a measure [4]: 100%; kill (no flies hatched) (Lucilia cuprina larvae; [15]): 100%; melting point: 50 °C |
| O=S1(=O)CSC(SCCC=C(F)F)=N1 [Example 2] |  |  |  |  |  | 100% |  |  | 2.24 | 100% | 100% | nematicidal action (activity) using gall formation as a measure [4]: 100%; kill [5]: 100%; kill [6]: 100%; kill [7]: 100%; kill [8]: 90%; kill [9]: 60% |
| O=S1(=O)CSC(SCCCCC(F)=C(F)F)=N1 [Example 3] |  |  |  |  |  |  | 100% |  | 2.93 | 100% | 100% | kill (no flies hatched) (Lucilia cuprina larvae; [15]): 100%; anthelmintic activity class (larvae dead) ([3]; active compound concentration 10 ppm): weak activity (1 means weak activity) |
| O=S1(=O)CSC(SCCCCC=C(F)F)=N1 [Example 4] |  |  |  |  |  | 100% |  | no activity | 2.99 | 100% | 100% | kill [5]: 100%; kill [6]: 100%; kill [10]: 100%; kill [8]: 100%; kill [9]: 40% |
| O=S1(=O)CCSC(SCCCCC=C(F)F)=N1 [Example 6] | 100% | 100% | 100% | 100% | 73% | 95% | 100% | no activity |  |  |  |  |
| O=S1(=O)CCSC(SCCC=C(F)F)=N1 [Example 11] | 100% | 100% | 100% |  |  |  |  | no activity |  |  |  |  |
| O=S1(=O)CCCSC(SCCC(F)=C(F)F)=N1 [Example 13] | 100% | 100% | 100% |  |  |  |  |  |  |  |  |  |
| O=S1(=O)CCCSC(SCCCCC=C(F)F)=N1 [Example 16] | 100% | 100% | 100% | 100% | 89% | 91% |  | no activity |  |  |  |  |
